Experimental data from patent US10336757B2, “Treatment of neurodegenerative diseases through inhibition of HSP90” (Sloan-Kettering Institute for Cancer Research, priority 2006, dated 2019).

What was measured:
[1] = test system: mTau expression and phosphorylation, p35; assay: 30 day Hsp90 inhibitor treatment of JNPL3 mice; assay type: in vivo; details: 30 days
Procedure: JNPL3 female mice 6.5 months of age were treated for 30 days, 5 day/week, with the Hsp90 inhibitor PU-DZ8 (FIG. 5) or vehicle, or sacrificed for time zero, n=4/group. Brains were divided in subcortical and cortical regions and processed using the Greenberg and Davies extraction protocol. (77) Sarkosyl soluble fractions (S1) were analyzed by WB for p35 and Hsp70, and for tau epitopes found abnormally hyperphosphorylated in AD brains such as: 5202 and T205 recognized by ATB, T181 by AT270, T231 by AT180. These are putative cdk5/p35 sites. Protein bands were normalized to Hsp90 and plotted as relative units. […].
To investigate whether modulation of mTau could be sustained over a longer Hsp90 inhibitor-treatment period, without being toxic to mice, JNPL3 mice were subjected for 30 days to these agents. Female JNPL3 mice 6.5 months of age (n=10) were administered i.p. vehicle (n=5) or one of the Hsp90 inhibitors, PU24FC1 (200 mg/kg) or PU-DZ8 (75 mg/kg) (n=5), on a daily, five-times per week schedule and animals were sacrificed at 8 h following the last administered dose of inhibitor. […] Furthermore, no visible internal organ damage was detected at sacrifice upon gross inspection. Both S1 and P3 fractions extracted from the subcortical brain region of these mice were analyzed for mTau expression and phosphorylation.

[2] = test system: p35 and Tau phosphorylation on Ser202; assay: One dose PU-DZ8 in hTau mice, cortical S1 fractions; assay type: in vivo, mouse; details: 75 mg/kg i.p.
Procedure: The majority of Tau pathology in hTau mice is located in the cortical brain region. These mice express six isoforms of non-mutant human Tau, but develop AD-like Tau-pathology. Heat-stable fractions (S1) prepared from cortical homogenates of these mice indicate an age-related accumulation of Tau phosphorylated at putative cdk5 sites. […] Aggregate-free Tau (S1) fractions were prepared from the cortical region of these mice and human Tau levels assessed by immunobloting with an antibody specific for 3-repeat domain Tau (RD3). By analogy to experiments on primary neuronal cultures and WT Tau transfected cells, the Hsp90 inhibitor had no effect on soluble WT Tau expression. […] The monoclonal antibody CP13 is commonly used to detect Tau pathology in both early and more advanced stages of Tau aggregate accumulation (41).

P-glycoprotein = P-glycoprotein (Homo sapiens (Human), UniProt P08183); assay: P-glycoprotein substrate status; assay type: in vitro ADME; details: purine scaffold therapeutic
[3] = Experimentally determined logP by RP-HPLC; assay type: physicochemical; details: using RP-HPLC
Text: Compounds of this type may also be provided with a degradable or cleavable linker, such that monomeric agents are provided in vivo. In this embodiment, the dimeric form need not retain activity or the ability to cross the blood brain barrier, and the nature of the linker therefore is not relevant to activity, only to the ability to form active monomeric species. In general, moderately lipophilic drugs such as PUs cross the BBB by passive diffusion. A good structural understanding for the BBB permeability is still lacking, but several parameters are believed to facilitate such behavior. Lipophilicity was the first of the descriptors to be identified as important for CNS penetration. […] The mean value for ClogP for the marketed CNS drugs is 2.5. […] The rules for molecular weight in CNS drugs have been reviewed, where small molecules may undergo significant passive lipid-mediated transport through the blood brain barrier, when the molecular mass is kept in or below a 400- to 600-Da range (90). PU-DZ8 has a MW of 512. All the QSAR equations emphasize the importance of hydrogen bonding —CNS penetration requires 5 or less hydrogen bond acceptors (91). PU-DZ8 has 4. […] PSA has been used as a predictor for BBB penetration by many investigators (92). In general, drugs aimed at the CNS tend to have lower polar surface areas than other classes (93,94). […]

P-glycoprotein, sequence (P08183 whole entry): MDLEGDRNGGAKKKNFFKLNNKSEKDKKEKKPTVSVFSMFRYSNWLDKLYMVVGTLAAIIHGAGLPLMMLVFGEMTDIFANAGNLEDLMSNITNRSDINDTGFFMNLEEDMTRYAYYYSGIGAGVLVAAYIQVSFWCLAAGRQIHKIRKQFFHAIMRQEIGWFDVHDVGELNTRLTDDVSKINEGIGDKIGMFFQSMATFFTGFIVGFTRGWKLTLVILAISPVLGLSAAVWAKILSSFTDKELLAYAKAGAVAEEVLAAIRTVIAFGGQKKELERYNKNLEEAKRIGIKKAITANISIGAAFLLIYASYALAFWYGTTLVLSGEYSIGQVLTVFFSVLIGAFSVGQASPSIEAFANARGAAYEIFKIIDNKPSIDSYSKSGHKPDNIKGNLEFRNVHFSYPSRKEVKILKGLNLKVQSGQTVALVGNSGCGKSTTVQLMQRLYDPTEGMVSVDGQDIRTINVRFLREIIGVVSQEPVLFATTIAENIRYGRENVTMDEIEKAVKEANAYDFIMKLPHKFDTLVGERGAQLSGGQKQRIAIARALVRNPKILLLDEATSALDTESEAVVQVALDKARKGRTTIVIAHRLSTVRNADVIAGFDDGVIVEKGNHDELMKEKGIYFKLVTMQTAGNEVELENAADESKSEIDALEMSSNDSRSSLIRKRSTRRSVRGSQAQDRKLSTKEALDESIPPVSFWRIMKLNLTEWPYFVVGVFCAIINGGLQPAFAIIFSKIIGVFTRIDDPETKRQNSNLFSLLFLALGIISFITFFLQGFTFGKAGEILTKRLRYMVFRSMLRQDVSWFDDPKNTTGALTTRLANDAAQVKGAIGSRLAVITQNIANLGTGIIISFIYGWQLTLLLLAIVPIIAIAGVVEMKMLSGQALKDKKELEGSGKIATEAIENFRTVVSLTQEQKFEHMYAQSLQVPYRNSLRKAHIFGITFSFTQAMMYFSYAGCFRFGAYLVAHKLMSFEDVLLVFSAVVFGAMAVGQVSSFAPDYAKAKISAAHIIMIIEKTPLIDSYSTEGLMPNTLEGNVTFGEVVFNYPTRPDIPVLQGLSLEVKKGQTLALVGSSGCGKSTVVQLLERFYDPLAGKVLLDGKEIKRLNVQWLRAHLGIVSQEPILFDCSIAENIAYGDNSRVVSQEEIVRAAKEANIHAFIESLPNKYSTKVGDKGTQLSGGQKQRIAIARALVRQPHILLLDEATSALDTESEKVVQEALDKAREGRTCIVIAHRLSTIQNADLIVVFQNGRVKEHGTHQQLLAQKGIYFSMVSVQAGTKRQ

CC(C)NCCCn1c(Cc2cc3c(cc2I)OCO3)nc2c(N)nc(F)nc21 [PU-DZ8]
toxicity (animal weight, fur appearance, appetite, posture) ([1]; five-times per week i.p., PU24FC1 200 mg/kg or PU-DZ8 75 mg/kg): No toxicity was observed | Tau expression and phosphorylation in S1 and P3 fractions ([1]; subcortical brain region): significant reduction in Tau expression and phosphorylation | p35 in S1 fraction ([1]; subcortical brain region): p35 reduction | Tau phosphorylation on Ser202 (antibody CP13) ([2]; 8 h post-administration): alleviation of Tau phosphorylation | p35 levels ([2]; 8 h post-administration): significant time-dependent reduction | soluble WT Tau expression ([2]; cortical S1): no effect | P-gp substrate (P-glycoprotein): not a substrate of P-pg | experimentally determined logP [3]: 1.53
